Assay results published in paper PMC10721898, “C5 methylation confers accessibility, stability and selectivity to picrotoxinin” (Nature Communications, 2023).
“And” between values parts separate entries of the source, which are not always exact repeats. Equal values may be shown once. “Also recorded” adds a separate entry of the source.

Columns and labels:
[1] = Stability in mouse plasma; type: in vitro ADME
Text: (§1) We investigated the relative rates of esterase-mediated hydrolysis[17] observed in mouse and human plasma, to evaluate potential for future translational applications. […] Due to the high stability of the C15 lactone, identified above, combined with the kinetic lability and reversible opening of the C11 lactone identified previously, enzymatic degradation in serum likely reflects a combination of reversible C11 hydrolysis[38] (unaffected by C5 methylation) and irreversible C15 hydrolysis (obstructed by C5 methylation)[17]. No prior studies have identified PXN modifications that enhance metabolic stability, partly due to the difficulty of synthetic modification and partly due to the prior incorrect assignment of the site of kinetic hydrolysis (C11 vs. C15)[38].
(§2) Test compound working solution: 5 μL of tested compound stock solution (10 mM in DMSO) were diluted with 495 μL of DMSO (concentration: 100 μM, 100% DMSO). Propantheline bromide working solution: 5 μL of propantheline bromide stock solution (10 mM in DMSO) were diluted with 495 μL of H2O (concentration: 100 […]
(§3) Supplementary Table 6. Test system.
(§4) Species/ Matrix Minimum No. of Anticoagulant Vendor
(§5) CD-1 Mouse 20 Male EDTA-K2 Beijing Vital River Laboratory
(§6) Human Plasma 3 Male & 3 Female EDTA-K2 BioreclamationIVT
(§7) The pooled frozen plasma was thawed in a water bath at 37 °C prior to experiment. Plasma was centrifuged at 1968 g (4000 rpm) for 5 min and the clots were removed. Using an Apricot automation work station, 98 μL/well of blank plasma were added to all 96-well reaction plates. (Blank, T0, T10, T30, T60 and T120) . An Apricot automation workstation was used to add 2 μL/well of working solution (100 μM) to all reaction plates except Blank. (T0, T10, T30, T60 and T120) . All reaction plates containing mix tures of compound a nd plasma were incubated at 37 °C in water bath. The reaction plates were incubated at 37 °C, and timer was started. At the end of incubation, 400 μL of stock solution was added (200 ng/mL tolbutamide and 200 ng/mL labetalol in MeCN) to precipitate protein and mixed thoroughly. Each plate was sealed and shaken for 20 minutes, then centrifuged at 1968 g (4000 rpm) and 4 °C for 20 minutes. After centrifugation, an Apricot automation workstation was used to transfer 150 μL supernatant. Each bioanalysis plate was sealed and shaken for 10 minutes prior to LC -MS/MS […]
(§8) The % remaining of test compound after incubation in plasma was calculated using following equation:
(§9) % Remaining= 100 x (PAR at appointed incubation time / PAR at T0 time) where PAR is the peak area ratio of analyte versus internal standard (IS) The appointed incubation time points are T0 (0 min), Tn (n=0, 10, 30, 60, 120 min)
(§10) Supplementary Table 7. %Remaining of test compound in two plasmas.
(§11) Compound Time point (min) % Remaining T½ (min)

[2] = Stability in human plasma; type: in vitro ADME
Text: as §1, §2, §3, §4, §5, §6, §7, §8, §9, §10, §11

[3] = Methanolysis with NaOMe in d4-methanol (1H NMR monitoring); type: physicochemical; settings: for concentration in competitive methanolysis: 5 mol% NaOMe in CD3OD
Text: Even addition of 2 equivalents NaOMe had no effect on 5MePXN (Fig. 3b and SI), far exceeding the tolerance of PXN. Thus, C5 methylation stabilized PXN against buffered water hydrolysis, acidic hydrolysis and alkaline methanolysis (Fig. 3a–d, see also ref. [21]). This profound stabilization highlighted the unique effects to reactivity imparted by C5 methylation. Furthermore, it opened a window into understanding differences in blood degradation of 5MePXN.
Supplementary Figure 4. Competitive methanolysis of PXN and 5MePXN under 5 mol% NaOMe in CD3OD.
(a) 0 min, (b) 10 min, (c) 30 min, (d) 60 min, (e) 100 min, (f) 140 min, (g) 280 min.
Supplementary Table 5. Concentration of each component in competitive methanolysis. […]
Supplementary Figure 5. Concentration of PXN, d5-33, d9-34 and 5MePXN vs. time (min) 3.4 Methanolysis of 5MePXN under different equivalent of NaOMe in CD3OD To a solution of 5MePXN (2.5 mg, 0.0082 mmol ) in CD 3OD (0.4 mL) in 5 mm NMR tube was added a solution of NaOMe in CD3OD (0.1, 0.2, 0.5, 0.8, 1.0, 1.5 and 2.0 equiv) at room temperature. The NMR tube was shaken bottom up 5 times to make solution homogenous, then measured by 1H NMR.

[4] = Degradation in dilute sulfuric acid; type: physicochemical
[5] = D2O, 8.2 pH*; previously observed; cited from earlier work
[6] = 37 °C, incubation to 120 min, extrapolated half-life, n = 2

Compound: C=C(C)C1C2OC(=O)C1(C)C1(O)CC3OC34C(=O)OC2C41C (stereo not drawn) [5MePXN, 5-methylpicrotoxinin]
- increase of extrapolated half-life by C5 methylation, mouse plasma ([1]; 5MePXN vs. PXN): 2.1 X
- T½ in mouse plasma [1, 6]: 3.45 h
- half-life at 2 µM ([1]; male, CD-1, mouse, plasma, 37 °C, incubation to 120 min, extrapolated half-life, n = 2, read-out: T½ in mouse plasma): 3.45 h
- remaining at 0 h, 2 µM ([1]; male, CD-1, mouse, plasma, 0 min): 100%
- remaining at 10 min, 2 µM ([1]; male, CD-1, mouse, plasma, 10 min): 97.9%
- remaining at 0.5 h, 2 µM ([1]; male, CD-1, mouse, plasma, 30 min): 87.9%
- remaining at 1 h, 2 µM ([1]; male, CD-1, mouse, plasma, 60 min): 75.7%
- remaining at 2 h, 2 µM ([1]; male, CD-1, mouse, plasma, 120 min): 68%
- increase of extrapolated half-life by C5 methylation, human plasma ([2]; 5MePXN vs. PXN): 2.7 X
- T½ in human plasma [2, 6]: 4.82 h and > 4.82 h
- half-life at 2 µM ([2]; both sexes, human, plasma, 37 °C, incubation to 120 min, extrapolated half-life, n = 2, read-out: T½ in human plasma): 4.82 h
- remaining at 0 h, 2 µM ([2]; both sexes, human, plasma, 0 min): 100%
- remaining at 10 min, 2 µM ([2]; both sexes, human, plasma, 10 min): 103%
- remaining at 0.5 h, 2 µM ([2]; both sexes, human, plasma, 30 min): 93.7%
- remaining at 1 h, 2 µM ([2]; both sexes, human, plasma, 60 min): 84.5%
- remaining at 2 h, 2 µM ([2]; both sexes, human, plasma, 120 min): 77.7%
- stability to catalytic NaOMe ([3]; 5 mol % NaOMe, d4-methanol, 22 °C): did not observe any consumption
- concentration in competitive methanolysis ([3]; 0 min): 3268 µM
- concentration in competitive methanolysis ([3]; 5 min): 3268 µM
- concentration in competitive methanolysis ([3]; 10 min): 3268 µM
- concentration in competitive methanolysis ([3]; 15 min): 3268 µM
- concentration in competitive methanolysis ([3]; 20 min): 3268 µM
- concentration in competitive methanolysis ([3]; 25 min): 3268 µM
- concentration in competitive methanolysis ([3]; 30 min): 3268 µM
- concentration in competitive methanolysis ([3]; 35 min): 3268 µM
- concentration in competitive methanolysis ([3]; 40 min): 3268 µM
- concentration in competitive methanolysis ([3]; 45 min): 3268 µM
- concentration in competitive methanolysis ([3]; 50 min): 3268 µM
- concentration in competitive methanolysis ([3]; 55 min): 3268 µM
- concentration in competitive methanolysis ([3]; 60 min): 3268 µM
- concentration in competitive methanolysis ([3]; 65 min): 3268 µM
- concentration in competitive methanolysis ([3]; 70 min): 3268 µM
- concentration in competitive methanolysis ([3]; 75 min): 3268 µM
- concentration in competitive methanolysis ([3]; 80 min): 3268 µM
- concentration in competitive methanolysis ([3]; 85 min): 3268 µM
- concentration in competitive methanolysis ([3]; 90 min): 3268 µM
- concentration in competitive methanolysis ([3]; 95 min): 3268 µM
- concentration in competitive methanolysis ([3]; 100 min): 3268 µM
- concentration in competitive methanolysis ([3]; 110 min): 3268 µM
- concentration in competitive methanolysis ([3]; 120 min): 3268 µM
- concentration in competitive methanolysis ([3]; 130 min): 3268 µM
- concentration in competitive methanolysis ([3]; 140 min): 3268 µM
- concentration in competitive methanolysis ([3]; 280 min): 3268 µM
- competition experiment, 1:1 mixture of PXN and 5MePXN ([3]; 5 mol% NaOMe, d4-methanol): completely persisted
- stability to excess NaOMe ([3]; 200 mol % (2 equivalents) NaOMe): had no effect; also recorded: stable
- stability to acid ([4]; 1 mol % H2SO4 (Fig. 1b)): stable
- degradation in acid ([4]; warming, 1% H2SO4, 0.18 M, aqueous): did not react at all
- t1/2 of degradation (pseudo-first order) [5]: 120 h
